Columns and labels:
Male Sprague-Dawley rats [1] = assay: Example 2: dobutamine vs levosimendan for post-resuscitation myocardial failure, 8 min untreated VF + 6 min precordial compression; format: in vivo, rat
Description: The animals were anesthetized following intraperitoneal injection of 45 mg kg^−1 pentobarbital. […] No anesthetic agent was administrated during the 30 minute interval prior to inducing cardiac arrest.
Pressures were measured with a high sensitivity pressure transducer (Model 42584-01; Abbott Critical Care System, North Chicago, Ill.). The optimally damped frequency response of the system was 22 Hz. […] Guided by pressure monitoring, the catheter was slowly withdrawn into the right atrium. Right atrial pressure was measured with reference to the mid-chest with another high sensitivity pressure transducer (Abbott model 42584-01). This catheter also served as an injection site for the thermal tracer. A 4 F polyethylene catheter (model C-PMS401J; Cook Critical Care, Bloomington, Ind.) was advanced through the right external jugular vein into the right atrium. A precurved guide wire supplied with the catheter was then advanced through the catheter into the right ventricle until an endocardial electrogram was observed. Another 23-gauge polyethylene catheter (PE 50) was advanced through the left femoral artery into the abdominal aorta for measurement of aortic pressure with the same Abbott high sensitivity transducer and also for sampling arterial blood. […] The thermocouple provided for measurements of blood temperature and thermodilution cardiac output. […] An additional PE 50 catheter was advanced into right femoral vein for drug infusion. EKG lead II was continuously recorded.
Experimental Procedure: A total of 15 animals were investigated. The investigators were blinded to the intervention until immediately prior to inducing VF, at which time the principal investigator opened a sealed envelope for assignment to one of three groups: (1) levosimendan (2) dobutamine or (3) saline placebo. This allowed time for preparation of a fresh dilution of the selected drug. […] Current flow was continued for 3 minutes to prevent spontaneous defibrillation as previously described (Von Planta I, Weil MH. Cardiopulmonary resuscitation in the rat. J Appl Physiol. 1988;65(6):2641-2647). Ventilation was discontinued after onset of VF. Precordial compression was begun with a pneumatically driven mechanical chest compressor after 8 minutes of untreated VF and continued for 6 minutes. These methods have been extensively exercised and have been well-documented (see Von Plata I (supra)) and Sun SJ, Weil MH, Tang W, et al. Combined effects of buffer and adrenergic agent on postresuscitation myocardial function. J Pharm Exp Ther. 1999;291 :773-777). Coincident with the start of precordial compression, the animals were mechanically ventilated. Tidal volume was established at 6.5 ml per kg animal weight, a frequency of 100 min^−1, and on a FiO2 of 1.0.

male domestic pigs = assay: Example 3: dobutamine vs levosimendan in the porcine model of cardiac arrest and cardiac resuscitation; format: in vivo, pig
Description: Experimental Preparation: The experiments were performed in the porcine model of cardiac arrest and cardiac resuscitation which has been extensively exercised. (21,22). […] Anesthesia was initiated by intramuscular injection of ketamine (20 mg kg^−1) and was completed by ear vein injection of sodium pentobarbital (30 mg kg^−1). Additional 8 mg kg^−1 doses of sodium pentobarbital were injected to maintain anesthesia at intervals of one hour. A cuffed endotracheal tube was advanced into the trachea. Animals were mechanically ventilated with a volume of 15 mL kg^−1, peak airway flow of 40 L min^−1, and FiO2 of 0.2 with the aid of a volume-controlled ventilator (Model MA-1, Puritan-Bennett, Carlsbad, Calif.). End-tidal PCO2 (PETCO2) was monitored with an infrared analyzer (Model 01R-7101A, Nihon Kohden Corp, Tokyo, Japan). Respiratory frequency was adjusted to maintain PETCO2 between 35 and 40 mmHg. Blood temperature was maintained at 37±0.5° C. with the aid of infrared heating lamps, as required.
For the measurement of left ventricular functions, a 5.5/7.5 MHz biplane with pulse-wave Doppler transesophageal echocardiographic tranducer with 4-way flexure (Model 21363A, Hewlett-Packard Co. Medical Products Group, Andover, Mass.) was advanced from the incisor teeth into the esophagus for a distance of approximately 40 cm. For the measurement of aortic pressure, a fluid filled catheter was advanced from the surgically exposed left femoral artery into the thoracic aorta. For measurements of right atrial and pulmonary arterial pressures, blood temperature and cardiac output, a 7-French, pentalumen, thermodilution-tipped catheter was advanced from the surgically exposed left femoral vein and flow-directed into the pulmonary artery. For inducing VF, a 5-French pacing catheter (EP Techologies, Inc., Mountain View, Calif.) was advanced from the surgically exposed right cephalic vein into the right ventricle. […] This catheter was then looped laterally and advanced inferiorly for a distance of 5 cm into the great cardiac vein for sampling of coronary venous blood. The electrocardiographic (EKG) lead II was continuously recorded.
Experimental procedure: A total 15 animals were investigated. […] Cardiac arrest was induced with 1 to 2 mA AC delivered to the endocardium of the right ventricle. Mechanical ventilation was discontinued after onset of VF. At the end of a 7-minute interval of untreated VF, precordial compression (PC) was started with a pneumatic piston-driven chest compressor (Thumper, Model 1000, Michigan Instruments, Grand Rapids, Mich.). Coincident with the start of PC, the animal was mechanically ventilated with a tidal volume of […] and FiO2 of 1.0. […] The compression force was adjusted to decrease the anterior-posterior diameter of the chest by 25%. After 5 minutes of PC, defibrillation was attempted with a 150 J biphasic waveform shock delivered between the right infraclavicular area and the cardiac apex. If an organized cardiac rhythm with mean aortic pressure of more than 60 mm Hg persisted for an interval of 5 minutes or more, the animal was regarded as successfully resuscitated. At 10 minutes after restoration of spontaneous circulation (ROSC), one of the three interventions was begun. […] Levosimendan diluted in physiological salt solution was administered in a loading dose of 20 μg kg^−1, infused over 10 minutes, followed by infusion of 0.4 μg kg^−1 min^−1 also in physiologic salt solution for a total duration of 230 minutes.

Male Sprague-Dawley rats [2] = assay: Example 1: post-resuscitation myocardial dysfunction after VF cardiac arrest, drug infusion for 240 min post-resuscitation
[3] = 4-hour interval after treatment

C[C@@H]1CC(=O)NN=C1c1ccc(NN=C(C#N)C#N)cc1 [Levosimendan]
mean arterial pressure (MAP) (Male Sprague-Dawley rats [1]; between the three groups): no significant differences | duration of survival (Male Sprague-Dawley rats [1]; observed over 72 hours, least with saline placebo (FIG. 15)): maximal | left ventricular diastolic (filling) pressures (Male Sprague-Dawley rats [1]; post-resuscitation): significantly lesser increases | cardiac index (Male Sprague-Dawley rats [1]; post-resuscitation (FIG. 13)): significant increases in cardiac index | dP/dt40 (Male Sprague-Dawley rats [1]; vs saline placebo (FIG. 14)): Significantly greater | −dP/dt (Male Sprague-Dawley rats [1]; vs saline placebo (FIG. 14)): Significantly greater | mean pulmonary artery pressure (male domestic pigs; [3]): Significantly lower | right atrial (filling) pressure (male domestic pigs; [3]): Significantly lower | heart rate (male domestic pigs; among the three groups): did not differ | neurological alertness scores (male domestic pigs; at 24 hours): significantly better | arterial pressure (male domestic pigs; between levosimendan and dobutamine): no differences in arterial pressure | coronary arterial-venous oxygen differences (male domestic pigs; in comparison to dobutamine (FIG. 19)): numerically smaller | EF (male domestic pigs; in comparison to dobutamine, persisted at 72 hours (FIG. 17)): significantly greater | FAC (male domestic pigs; in comparison to dobutamine, persisted at 72 hours (FIG. 18)): significantly greater | cardiac output (male domestic pigs; vs saline placebo (FIG. 16)): Significantly greater cardiac output | arterial pressures (Male Sprague-Dawley rats [2]; among the three groups, at PR10 and after administration of the drugs (FIG. 4)): No significant differences | cardiac index (Male Sprague-Dawley rats [2]; post-resuscitation (FIG. 6)): comparable increases in cardiac index | contractility as reflected in the dP/dt40 (Male Sprague-Dawley rats [2]; post-resuscitation (FIG. 9)): consistently greater increases in contractility | stroke volume (Male Sprague-Dawley rats [2]; post-resuscitation, initially (FIG. 7)): significantly greater stroke volumes | left ventricular diastolic (filling) pressures (Male Sprague-Dawley rats [2]; vs control and dobutamine-treated animals (FIG. 11)): substantially lower and near normal | post-resuscitation survival (Male Sprague-Dawley rats [2]; vs dobutamine and placebo (FIG. 12)): significantly longer post-resuscitation survival | systemic vascular (arterial) resistance (Male Sprague-Dawley rats [2]; vs placebo-treated controls (FIG. 8)): Comparable and significant reductions
